From ChEMBL document CHEMBL1129703, “Lipophilic bioisosteres of nucleoside triphosphates” (Bioorg Med Chem Lett, 1996) come the findings set out here.

The structures appear in SMILES notation.

Experiment [1] has as its target Human immunodeficiency virus type 1 reverse transcriptase (Human immunodeficiency virus 1, UniProt Q72547). Kind of experiment: Inhibition of HIV-1 reverse transcriptase.
Experiment [2] deals with C8166. As to the kind of experiment: Concentration of compound required to reduce cell viability of C8166 cells by 50%. The experiment is classed as functional. As to conditions: Homo sapiens.
Experiment [3] deals with CCRF-CEM. As to the kind of experiment: Concentration required to reduce cell viability of CEM/0 cells by 50%. Format: functional. The following applies: Homo sapiens.
Experiment [4] deals with CCRF-CEM. As to the kind of experiment: Anti-HIV activity against HIV-1 infected CEM/0 cell lines. Format: functional, cell-based. As to conditions: Homo sapiens.
For experiment [5], the system named is JM1. Kind of experiment: Concentration required to reduce cell viability of JM cells by 50%. The experiment is classed as functional, Homo sapiens.
Experiment [6] deals with CEM-TK(-). Kind of experiment: Anti-HIV activity against HIV-2 infected CEM/TK- cell lines. The following applies: Homo sapiens.
The subject of experiment [7] is JM1. As to the kind of experiment: Anti-HIV activity against HIV-1 infected JM cell lines. The experiment is classed as functional, cell-based.
Experiment [8] relates to CCRF-CEM. As to the kind of experiment: Anti-HIV activity against HIV-2 infected CEM/0 cell lines. Format: functional, cell-based. The following applies: Homo sapiens.
Experiment [9] has as its system C8166. Kind of experiment: Anti-HIV activity against HIV-1 infected C8166 cell lines. Format: functional, cell-based, Human immunodeficiency virus 1.
The subject of experiment [10] is MT2. As to the kind of experiment: Anti-HIV activity against HIV-2 infected MT2 cell lines. Format: functional, cell-based, Homo sapiens.
The test system of experiment [11] is C8166. As to the kind of experiment: Cytotoxicity in C8166 cell lines. Format: functional, Homo sapiens.
Experiment [12] concerns MT2. As to the kind of experiment: Concentration required to reduce cell viability of MT2 cells by 50%. The experiment is classed as functional. The following applies: Homo sapiens.

In general, IC50 refers to the concentration that gives 50% inhibition. Low values mean inhibition by little substance, high ones a need for much substance. The CC50 is the concentration that lowers cell viability or growth by half. What is called EC50 is the midpoint of the concentration-response curve. As to `CSCOC1(C)COC(C)(CC(=O)OC[C@H]2O[C@@H](n3cc(C)c(=O)[nH]c3=O)C[C@@H]2N=[N+]=[N-])C1` (some centres undefined), the IC50 in [1] is > 100 µM. Moreover, the CC50 in [2] worked out at 500 µM; in experiment [3] it was 233 µM; in experiment [5] (Homo sapiens, JM1) it was 500 µM. Besides, the EC50 is 0.2 µM in [4]; > 250 µM in experiment [6]; 100 µM in experiment [7] (Homo sapiens, JM1); 0.14 µM in experiment [8]; 0.32 µM in [9] (Homo sapiens, C8166).
Take `Cc1cn([C@H]2C[C@H](N=[N+]=[N-])[C@@H](COC(=O)CC3(C)CC(C)(O)CO3)O2)c(=O)[nH]c1=O` (stereo in doubt; form 1): the values for the EC50 in [10] (mt2), in [7] (jm1) and in [9] (c8166) were 0.064 µM, 100 µM and 0.064 µM, respectively. The CC50 in experiment [5] is > 1000 µM.
On to `Cc1cn([C@H]2C[C@H](N=[N+]=[N-])[C@@H](COC(=O)CC3(C)CC(C)(O)CO3)O2)c(=O)[nH]c1=O` (stereo in doubt; form 2), for which the values for the EC50 in experiment [10] (mt2), in experiment [7] (jm1) and in experiment [9] (c8166) were 4 µM, 400 µM and 8 µM, respectively. The CC50 in [5] was 400 µM; in [11] (Homo sapiens, C8166) it was > 1000 µM; in experiment [12] it was > 1000 µM.
As to `CSCO[C@@]1(C)CO[C@@](C)(CC(=O)OC[C@H]2O[C@@H](n3cc(C)c(=O)[nH]c3=O)C[C@@H]2O)C1`, the IC50 in experiment [1] is > 100 µM. The CC50 in [3] was > 250 µM; in experiment [5] (Homo sapiens, JM1), 400 µM; in experiment [11] (Homo sapiens, C8166), 1000 µM. The EC50 in experiment [4] was 200 µM; in [6], > 250 µM; in experiment [7] (Homo sapiens, JM1) it was 200 µM; in experiment [8], 88 µM; in experiment [9] (Homo sapiens, C8166), 200 µM.
Turning to `Cc1cn([C@H]2C[C@H](O[Si](C)(C)C(C)(C)C)[C@@H](COC(=O)CC3(C)CC(C)(O)CO3)O2)c(=O)[nH]c1=O` (stereo in doubt; form 1), the EC50 turned out to be 20 µM in [10] (Homo sapiens, MT2); 20 µM in [7] (Homo sapiens, JM1); 20 µM in [9] (Homo sapiens, C8166). Besides, the CC50 in experiment [5] (Homo sapiens, JM1) was found to be 200 µM; in experiment [11] (Homo sapiens, C8166) it was 200 µM; in [12] it was 200 µM.
Turning to `CC1=CN([C@H]2C[C@H](O)[C@@H](COC(=O)C[C@@]3(C)C[C@@](C)(O)CO3)O2)C(=O)NC1`, the EC50 in [10] (Homo sapiens, MT2) is 4 µM; in experiment [7] (Homo sapiens, JM1) it was 40 µM; in experiment [9] (Homo sapiens, C8166), 8 µM. Also, the CC50 in experiment [5] (Homo sapiens, JM1) was > 500 µM; in [11] (Homo sapiens, C8166), > 500 µM; in experiment [12], > 1000 µM.
With `Cc1cn([C@H]2C=C[C@@H](CNC(=O)CC3(C)CC(C)(O)CO3)O2)c(=O)[nH]c1=O` (stereo in doubt; form 1), the EC50 in experiment [10] (Homo sapiens, MT2) came to 500 µM; in experiment [7] (jm1), 200 µM; in experiment [9] (Homo sapiens, C8166), 500 µM. In addition, the CC50 in experiment [5] (Homo sapiens, JM1) was > 500 µM; in experiment [11] (Homo sapiens, C8166), > 500 µM; in experiment [12], > 500 µM.
Regarding `CSCO[C@@]1(C)CO[C@](C)(CC(=O)OC[C@H]2O[C@@H](N3C=C(C)CNC3=O)C[C@@H]2O)C1`, the IC50 in experiment [1] was > 100 µM. Also, the CC50 in experiment [2] was 400 µM; in experiment [3], > 250 µM; in experiment [5] (Homo sapiens, JM1), 400 µM. For the same compound, the EC50 was 6 µM in experiment [4]; > 250 µM in [6]; 200 µM in experiment [7] (Homo sapiens, JM1); 3.1 µM in experiment [8]; 16 µM in experiment [9] (Homo sapiens, C8166).
As to `Cc1cn([C@H]2C[C@H](N=[N+]=[N-])[C@@H](CO)O2)c(=O)[nH]c1=O` [ZIDOVUDINE], in experiment [1], the IC50 is > 100 µM. For the same compound, the CC50 in experiment [3] was > 250 µM; in experiment [5] (Homo sapiens, JM1), > 1000 µM; in [11] (Homo sapiens, C8166) it was > 1000 µM. Besides, the EC50 in experiment [6] is > 250 µM; in experiment [7] (Homo sapiens, JM1), 200 µM.
As for `Cc1cn([C@H]2C[C@H](O)[C@@H](COC(=O)C[C@@]3(C)C[C@@](C)(O)CO3)O2)c(=O)[nH]c1=O`, the concentration for a half-maximal effect (EC50) is 1000 µM in experiment [10] (Homo sapiens, MT2); 500 µM in experiment [7] (Homo sapiens, JM1); > 1000 µM in experiment [9] (Homo sapiens, C8166). For the same compound, the CC50 is > 1000 µM in [5] (Homo sapiens, JM1); > 1000 µM in experiment [11] (Homo sapiens, C8166); > 1000 µM in [12].
As for `CSCO[C@@]1(C)CO[C@@](C)(CC(=O)OC[C@H]2O[C@@H](n3cc(C)c(=O)[nH]c3=O)C[C@@H]2O[Si](C)(C)C(C)(C)C)C1`, the IC50 in [1] is > 100 µM. Further, the CC50 in experiment [3] amounted to 36 µM; in experiment [5] (Homo sapiens, JM1), 80 µM; in [11] (Homo sapiens, C8166), 80 µM. Further, the concentration giving a half-maximal response (EC50) in experiment [4] was > 10 µM; in experiment [7] (Homo sapiens, JM1), 16 µM; in [8] it was > 10 µM; in experiment [9] (Homo sapiens, C8166) it was 16 µM.
In the case of `Cc1cn([C@H]2C=C[C@@H](CNC(=O)CC3(C)CC(C)(O)CO3)O2)c(=O)[nH]c1=O` (stereo in doubt; form 2), the EC50 in [10] (mt2) is > 500 µM; in experiment [7] (jm1), 500 µM; in [9] (c8166), > 500 µM.
Turning to `Cc1cn([C@H]2C[C@H](O[Si](C)(C)C(C)(C)C)[C@@H](CO)O2)c(=O)[nH]c1=O`, the CC50 in [5] (Homo sapiens, JM1) was 400 µM; in [11] (Homo sapiens, C8166), 400 µM. Also, the EC50 is 20 µM in experiment [7] (Homo sapiens, JM1) and 16 µM in experiment [9] (Homo sapiens, C8166).
Turning to `Cc1cn([C@H]2C[C@H](N=[N+]=[N-])[C@@H](COC(=O)CC3(C)CC(C)(O)CO3)O2)c(=O)[nH]c1=O` (stereo in doubt; 13), the CC50 worked out at 1000 µM in [5] and 500 µM in experiment [11]. In addition, the results for the EC50 in experiment [7] (jm1) and in experiment [9] (c8166) were 200 µM and 0.04 µM, respectively.
On to `CSCOC1(C)COC(C)(CC(=O)O)C1` (centres undefined), for which, in experiment [1], the IC50 was > 100 µM. Moreover, the CC50 in experiment [3] is > 250 µM; in experiment [5] (Homo sapiens, JM1), > 1000 µM; in experiment [11] (Homo sapiens, C8166), > 1000 µM. The EC50 is > 250 µM in experiment [4]; > 250 µM in experiment [6]; > 1000 µM in experiment [7] (Homo sapiens, JM1); > 250 µM in experiment [8]; > 1000 µM in experiment [9] (Homo sapiens, C8166).
Take `Cc1cn([C@H]2C[C@H](O[Si](C)(C)C(C)(C)C)[C@@H](COC(=O)CC3(C)CC(C)(O)CO3)O2)c(=O)[nH]c1=O` (stereo in doubt; form 2): the 50% effective concentration (EC50) in experiment [10] (mt2), in [7] (jm1) and in experiment [9] (c8166) was 10 µM throughout.
`CSCOC1(C)COC(C)(CC(=O)NC[C@@H]2C=C[C@H](n3cc(C)c(=O)[nH]c3=O)O2)C1` (some centres undefined): the EC50 in experiment [10] (Homo sapiens, MT2) is 200 µM; in experiment [7] (Homo sapiens, JM1), 500 µM; in experiment [9] (Homo sapiens, C8166), 400 µM. Also, the CC50 is > 1000 µM in experiment [5] (Homo sapiens, JM1); > 1000 µM in [11] (Homo sapiens, C8166); > 1000 µM in [12].
